Reference: US20260232767A1, “INTERLEUKIN-23 RECEPTOR ANTAGONIST PEPTIDES FOR USE IN THE TREATMENT OF PSORIASIS” (Janssen Pharmaceutica NV, priority 2023, published 2026)

Test system: subjects with moderate-to-severe plaque psoriasis
Experiment: PSSD symptom and sign scores, Example 2
Type: in vivo, human
Conditions: for Change from Baseline in PSSD Sign Score, LSMean / Change from Baseline in PSSD Symptom Score, LSMean: MMRM

SMILES: CC(=O)NCCCC[C@@H]1NC(=O)[C@H](Cc2c[nH]c3c(C)cccc23)NC(=O)[C@H]([C@@H](C)O)NC(=O)[C@H](CC(N)=O)NC(=O)[C@@H](NC(C)=O)C(C)(C)SSC(C)(C)[C@@H](C(=O)N[C@@H](Cc2ccc(OCCN)cc2)C(=O)N[C@@H](Cc2ccc3ccccc3c2)C(=O)NC2(C(=O)N[C@@H](CCC(=O)O)C(=O)N[C@@H](CC(N)=O)C(=O)N[C@@H](Cc3cccnc3)C(=O)N(C)CC(N)=O)CCOCC2)NC1=O [IL-23 receptor antagonist peptide, Ac-[Pen]*-N-T-[W(7-Me)]-[Lys(Ac)]-[Pen]*-Phe[4-(2-aminoethoxy)]-[2-Nal]-[THP]-E-N-[3-Pal]-Sarc-NH2 (*[Pen]-[Pen]* formdisulfidebond)]
- Subjects Achieving PSSD Sign Score 0 (%) (Week 16, 25 mg QD, Baseline Sign Score ≥1, N=43): (2.3%)
- Subjects Achieving PSSD Symptom Score 0 (%) (Week 16, 25 mg QD, Baseline Symptom Score ≥1, N=43): (16.3%)
- Change from Baseline in PSSD Sign Score, LSMean (Week 16, 25 mg QD): −31.7
- Change from Baseline in PSSD Symptom Score, LSMean (Week 16, 25 mg QD): −28.0
- Change from Baseline in PSSD Sign Score, Mean (Week 16, 50 mg QD): −42.7
- Change from Baseline in PSSD Sign Score, Median (Week 16, 50 mg QD): −43.0
- Change from Baseline in PSSD Symptom Score, Mean (Week 16, 50 mg QD): −36.7
- Change from Baseline in PSSD Symptom Score, Median (Week 16, 50 mg QD): −36.0
- Subjects Achieving PSSD Sign Score 0 (%) (Week 16, 50 mg QD, Baseline Sign Score ≥1, N=43): (14.0%)
- Subjects Achieving PSSD Symptom Score 0 (%) (Week 16, 50 mg QD, Baseline Symptom Score ≥1, N=42): (23.8%)
- Change from Baseline in PSSD Sign Score, LSMean (Week 16, 50 mg QD): −42.9
- Change from Baseline in PSSD Symptom Score, LSMean (Week 16, 50 mg QD): −35.4
- Change from Baseline in PSSD Sign Score, Mean (Week 16, 100 mg BID): −51.1
- Change from Baseline in PSSD Sign Score, Median (Week 16, 100 mg BID): −55.0
- Change from Baseline in PSSD Symptom Score, Mean (Week 16, 100 mg BID): −44.0
- Change from Baseline in PSSD Symptom Score, Median (Week 16, 100 mg BID): −42.0
- Subjects Achieving PSSD Sign Score 0 (%) (Week 16, 100 mg BID, Baseline Sign Score ≥1, N=42): (14.3%)
- Subjects Achieving PSSD Symptom Score 0 (%) (Week 16, 100 mg BID, Baseline Symptom Score ≥1, N=42): (26.2%)
- Change from Baseline in PSSD Sign Score, LSMean (Week 16, 100 mg BID): −50.6
- Change from Baseline in PSSD Symptom Score, LSMean (Week 16, 100 mg BID): −40.2
- Change from Baseline in PSSD Sign Score, Median (Week 16, 100 mg QD): −45.0
- Change from Baseline in PSSD Symptom Score, Mean (Week 16, 100 mg QD): −29.4
- Change from Baseline in PSSD Symptom Score, Median (Week 16, 100 mg QD): −31.0
- Subjects Achieving PSSD Sign Score 0 (%) (Week 16, 100 mg QD, Baseline Sign Score ≥1, N=43): (16.3%)
- Subjects Achieving PSSD Symptom Score 0 (%) (Week 16, 100 mg QD, Baseline Symptom Score ≥1, N=43): (27.9%)
- Change from Baseline in PSSD Sign Score, LSMean (Week 16, 100 mg QD): −45.3
- Change from Baseline in PSSD Symptom Score, LSMean (Week 16, 100 mg QD): −36.8
- Change from Baseline in PSSD Sign Score, Mean (Week 24, 25 mg BID): −39.8
- Change from Baseline in PSSD Sign Score, Median (Week 24, 25 mg BID): −41.0
- Change from Baseline in PSSD Symptom Score, Mean (Week 24, 25 mg BID): −33.3
- Change from Baseline in PSSD Symptom Score, Median (Week 24, 25 mg BID): −29.0
- Subjects Achieving PSSD Sign Score 0 (%) (Week 24, 25 mg BID, Baseline Sign Score ≥1, N=41): (4.9%)
- Subjects Achieving PSSD Symptom Score 0 (%) (Week 24, 25 mg BID, Baseline Symptom Score ≥1, N=41): (7.3%)
- Change from Baseline in PSSD Sign Score, LSMean (Week 24, 25 mg BID): −37.7
- Change from Baseline in PSSD Symptom Score, LSMean (Week 24, 25 mg BID): −32.1
- Change from Baseline in PSSD Sign Score, Mean (Week 24, 25 mg QD): −38.6
- Change from Baseline in PSSD Sign Score, Median (Week 24, 25 mg QD): −44.5
- Change from Baseline in PSSD Symptom Score, Mean (Week 24, 25 mg QD): −32.9
- Change from Baseline in PSSD Symptom Score, Median (Week 24, 25 mg QD): −33.0
- Subjects Achieving PSSD Sign Score 0 (%) (Week 24, 25 mg QD, Baseline Sign Score ≥1, N=43): (14.0%)
- Subjects Achieving PSSD Symptom Score 0 (%) (Week 24, 25 mg QD, Baseline Symptom Score ≥1, N=43): (20.9%)
- Change from Baseline in PSSD Sign Score, LSMean (Week 24, 25 mg QD): −31.6
- Change from Baseline in PSSD Symptom Score, LSMean (Week 24, 25 mg QD): −25.3
- Change from Baseline in PSSD Sign Score, Mean (Week 24, 50 mg QD): −45.7
- Change from Baseline in PSSD Sign Score, Median (Week 24, 50 mg QD): −47.5
- Change from Baseline in PSSD Symptom Score, Mean (Week 24, 50 mg QD): −38.8
- Change from Baseline in PSSD Symptom Score, Median (Week 24, 50 mg QD): −40.0
- Subjects Achieving PSSD Sign Score 0 (%) (Week 24, 50 mg QD, Baseline Sign Score ≥1, N=43): (9.3%)
- Subjects Achieving PSSD Symptom Score 0 (%) (Week 24, 50 mg QD, Baseline Symptom Score ≥1, N=42): (14.3%)
- Change from Baseline in PSSD Sign Score, LSMean (Week 24, 50 mg QD): −45.3
- Change from Baseline in PSSD Symptom Score, LSMean (Week 24, 50 mg QD): −36.3
- Change from Baseline in PSSD Sign Score, Mean (Week 24, 100 mg BID): −51.6
- Change from Baseline in PSSD Sign Score, Median (Week 24, 100 mg BID): −53.0
- Change from Baseline in PSSD Symptom Score, Mean (Week 24, 100 mg BID): −44.8
- Change from Baseline in PSSD Symptom Score, Median (Week 24, 100 mg BID): −44.0
- Subjects Achieving PSSD Sign Score 0 (%) (Week 24, 100 mg BID, Baseline Sign Score ≥1, N=42): (19.0%)
- Subjects Achieving PSSD Symptom Score 0 (%) (Week 24, 100 mg BID, Baseline Symptom Score ≥1, N=42): (21.4%)
- Change from Baseline in PSSD Sign Score, LSMean (Week 24, 100 mg BID): −50.0
- Change from Baseline in PSSD Symptom Score, LSMean (Week 24, 100 mg BID): −40.3
- Change from Baseline in PSSD Sign Score, Mean (Week 24, 100 mg QD): −41.9
- Change from Baseline in PSSD Sign Score, Median (Week 24, 100 mg QD): −44.0
- Change from Baseline in PSSD Symptom Score, Mean (Week 24, 100 mg QD): −28.4
- Change from Baseline in PSSD Symptom Score, Median (Week 24, 100 mg QD): −26.0
- Subjects Achieving PSSD Sign Score 0 (%) (Week 24, 100 mg QD, Baseline Sign Score ≥1, N=43): (11.6%)
- Subjects Achieving PSSD Symptom Score 0 (%) (Week 24, 100 mg QD, Baseline Symptom Score ≥1, N=43): (25.6%)
- Change from Baseline in PSSD Sign Score, LSMean (Week 24, 100 mg QD): −46.3
- Change from Baseline in PSSD Symptom Score, LSMean (Week 24, 100 mg QD): −36.4
- Change from Baseline in PSSD Sign Score, Mean (Week 24, Placebo → 100 mg QD): −40.2
- Change from Baseline in PSSD Sign Score, Median (Week 24, Placebo → 100 mg QD): −40.0
- Change from Baseline in PSSD Symptom Score, Mean (Week 24, Placebo → 100 mg QD): −26.6
- Change from Baseline in PSSD Symptom Score, Median (Week 24, Placebo → 100 mg QD): −26.0
- Subjects Achieving PSSD Sign Score 0 (%) (Week 24, Placebo → 100 mg QD, Baseline Sign Score ≥1, crossed-over subjects only): (8.6%)
- Subjects Achieving PSSD Symptom Score 0 (%) (Week 24, Placebo → 100 mg QD, Baseline Symptom Score ≥1, crossed-over subjects only): (11.4%)
- Change from Baseline in PSSD Sign Score, LSMean (Week 24, Placebo → 100 mg QD): −40.3
- Change from Baseline in PSSD Symptom Score, LSMean (Week 24, Placebo → 100 mg QD): −29.2
- Change from Baseline in PSSD Sign Score, Mean (Week 32, 25 mg BID): −38.3
- Change from Baseline in PSSD Sign Score, Median (Week 32, 25 mg BID): −38.0
- Change from Baseline in PSSD Symptom Score, Mean (Week 32, 25 mg BID): −31.0
- Change from Baseline in PSSD Symptom Score, Median (Week 32, 25 mg BID): −28.0
- Subjects Achieving PSSD Sign Score 0 (%) (Week 32, 25 mg BID, Baseline Sign Score ≥1, N=41): (4.9%)
- Subjects Achieving PSSD Symptom Score 0 (%) (Week 32, 25 mg BID, Baseline Symptom Score ≥1, N=41): (7.3%)
- Change from Baseline in PSSD Sign Score, LSMean (Week 32, 25 mg BID): −38.9
- Change from Baseline in PSSD Symptom Score, LSMean (Week 32, 25 mg BID): −31.4
- Change from Baseline in PSSD Sign Score, Mean (Week 32, 25 mg QD): −37.2
- Change from Baseline in PSSD Sign Score, Median (Week 32, 25 mg QD): −39.0
- Change from Baseline in PSSD Symptom Score, Mean (Week 32, 25 mg QD): −32.5
- Change from Baseline in PSSD Symptom Score, Median (Week 32, 25 mg QD): −32.0
- Subjects Achieving PSSD Sign Score 0 (%) (Week 32, 25 mg QD, Baseline Sign Score ≥1, N=43): (9.3%)
- Subjects Achieving PSSD Symptom Score 0 (%) (Week 32, 25 mg QD, Baseline Symptom Score ≥1, N=43): (20.9%)
- Change from Baseline in PSSD Sign Score, LSMean (Week 32, 25 mg QD): −31.3
- Change from Baseline in PSSD Symptom Score, LSMean (Week 32, 25 mg QD): −26.2
- Change from Baseline in PSSD Sign Score, Mean (Week 32, 50 mg QD): −39.7
- Change from Baseline in PSSD Sign Score, Median (Week 32, 50 mg QD): −45.0
- Change from Baseline in PSSD Symptom Score, Mean (Week 32, 50 mg QD): −35.9
- Change from Baseline in PSSD Symptom Score, Median (Week 32, 50 mg QD): −32.0
- Subjects Achieving PSSD Sign Score 0 (%) (Week 32, 50 mg QD, Baseline Sign Score ≥1, N=43): (9.3%)
- Subjects Achieving PSSD Symptom Score 0 (%) (Week 32, 50 mg QD, Baseline Symptom Score ≥1, N=42): (14.3%)
- Change from Baseline in PSSD Sign Score, LSMean (Week 32, 50 mg QD): −39.0
- Change from Baseline in PSSD Symptom Score, LSMean (Week 32, 50 mg QD): −32.9
- Change from Baseline in PSSD Sign Score, Mean (Week 32, 100 mg BID): −52.3
- Change from Baseline in PSSD Sign Score, Median (Week 32, 100 mg BID): −54.0
- Change from Baseline in PSSD Symptom Score, Mean (Week 32, 100 mg BID): −45.5
- Change from Baseline in PSSD Symptom Score, Median (Week 32, 100 mg BID): −47.0
- Subjects Achieving PSSD Sign Score 0 (%) (Week 32, 100 mg BID, Baseline Sign Score ≥1, N=42): (21.4%)
- Subjects Achieving PSSD Symptom Score 0 (%) (Week 32, 100 mg BID, Baseline Symptom Score ≥1, N=42): (23.8%)
- Change from Baseline in PSSD Sign Score, LSMean (Week 32, 100 mg BID): −51.0
- Change from Baseline in PSSD Symptom Score, LSMean (Week 32, 100 mg BID): −40.9
- Change from Baseline in PSSD Sign Score, Mean (Week 32, 100 mg QD): −42.3
- Change from Baseline in PSSD Sign Score, Median (Week 32, 100 mg QD): −43.0
